From BindingDB's records for doi:10.1021/jm00088a013 (University of Kansas, 1992)

Target: Adenosylhomocysteinase (Bos taurus)
Assay: Inhibitory activity against bovine liver S-adenosyl-L-homocysteine hydrolase (AdoHcy) rate of inactivation by NpcA

SMILES	Ki
Nc1ncnc2c1ncn2[C@@H]1C=C[C@@H](O)[C@H]1O	49 nM
Nc1ncnc2c1ncn2[C@@H]1C[C@H](c2ccccc2)[C@@H](O)[C@H]1O	67600 nM
CC[C@H]1C[C@@H](n2cnc3c(N)ncnc32)[C@H](O)[C@@H]1O	586 nM
C[C@@H]1C[C@@H](n2cnc3c(N)ncnc32)[C@H](O)[C@@H]1O	5020 nM
C=C[C@H]1C[C@@H](n2cnc3c(N)ncnc32)[C@H](O)[C@@H]1O	22 nM
C[C@H]1C[C@@H](n2cnc3c(N)ncnc32)[C@H](O)[C@@H]1O	27 nM
CC1=C[C@@H](n2cnc3c(N)ncnc32)[C@H](O)[C@@H]1O	9150 nM
Nc1ncnc2c1ncn2[C@@H]1CC[C@@H](O)[C@H]1O [(1R,2S,3R)-3-(6-amino-9H-purin-9-yl)cyclopentane-1,2-diol]	12 nM
